Experimental findings from US8784899B2, “Compositions and methods for cancer treatment” (priority 2005, dated 2014) are described below.

Type in all cases: cell-based
Data set [1] concerns NB4 cells. Put plainly: Growth assay, viable cells by trypan blue exclusion, NB4. Conditions: NB4, 100 μM trolox alone, any time point. The method, then: NB4, IM9 and AsR2 cells were seeded at 1×10^5 cells/ml in 24-well plates. Cells were treated with various concentrations of As2O3 or doxorubicin, alone or in combination with 100 μM trolox for six days. Viable cells were counted by trypan blue exclusion on day 1, 3 and 6. All cells were maintained at a density lower than 1×10^6 cells/ml through dilution as required, and media +/− treatment was replaced every third day. MCF-7, MDA-231 and T47D were seeded in 24-well plates at a density of 4000 cells/well. The next day, fresh media containing As2O3+/− trolox was added. On the days indicated, cells were fixed in 10% trichloroacetic acid and subsequently stained with sulforhodamine B (SRB). Bound SRB was solubilized in 10 mM unbuffered Tris and optical density was measured at 570 nm in a microplate reader.

In data set [2] the test system is NB4, AsR2 and IM9 cells. In words: Apoptosis by propidium iodide staining and flow cytometry. Conditions: 48 hours, all concentrations of arsenic tested. As to the method: Quantitation of apoptotic cells was performed as previously described (Hardin et al. J. Immunol. Methods. 1992; 154:99-107). Cells were treated, washed in buffer (PBS/5% FBS/0.01 M NaN3) at 4° C., pelleted, and resuspended in 0.5 ml of hypotonic fluorochrome solution containing 50 μg/ml propidium iodide (PI), 0.1% sodium citrate, and 0.1% Triton X-100™. Fluorescence was measured on a Becton-Dickinson™ FACS Calibur. Cells undergoing DNA fragmentation and apoptosis (those in which PI fluorescence was weaker than the typical G0-G1 cell cycle peak) were quantified using CellQUEST™ software.
To evaluate whether the growth inhibitory effect observed upon combined treatment of As2O3 and trolox in NB4, AsR2 and IM9 cells was due to the induction of apoptosis, cells were treated for 48 hours, subsequently stained with PI and analyzed by flow cytometry. […] To confirm an enhanced induction of apoptotic death, FITC-labeled Annexin V, which detects phosphatidylserine residues appearing on the external surface of early apoptotic cells, was used. Consistent with the increase in the subG0 subpopulation after PI staining, trolox augmented the percentage of cells positive for Annexin V (FIG. 2B lower panels). To further confirm the induction of apoptosis by the combination of As2O3 and trolox, we evaluated caspase 3 activation and PARP cleavage. […] Similar results were obtained with AsR2 and IM9 cells.
Background: Flow cytometry measures light scatter and fluorescence of single cells or particles in a stream.

The subject of data set [3] is Heme oxygenase-1 (HO-1). In words: HO-1 protein levels by Western blot. Conditions: NB4, IM9 and AsR2 cells, 24 hours. The method, then:
Cell extracts were washed with cold PBS and resuspended in 0.1 ml lysis buffer (5 mM NaH2PO4, 1 mM DTT, 10% glycerol, 1 mM PMSF, 10 μg/ml each aprotinin and leupeptin, pH 7.4) at 4° C. Extracts were centrifuged at 14,000 rpm at 4° C., and supernatants were transferred to fresh tubes. Protein concentration was determined with the Bio-Rad™ protein assay (Bio-Rad, Mississauga, Ontario, Canada). To detect HO-1 or PARP, 50 μg of protein was added to an equal volume of 2× sample buffer and run on a 10% SDS-polyacrylamide gel. Proteins were transferred to nitrocellulose membranes (Bio-Rad), stained with Ponceau S in 5% acetic acid to ensure equal protein loading, and blocked with 5% milk in PBS containing 0.5% Triton X-100™ for 1 hour at room temperature. The membrane was hybridized overnight at 4° C. with antibody against PARP (1:1000; Oncogene) or 3 hours with an antibody against HO-1 (1:1000; StressGen). Following three washes with PBS and 0.5% Triton X-100™, blots were incubated with a goat anti-rabbit antibody (1:10,000; PharMingen) for one hour at room temperature. Bands were visualized by enhanced chemiluminescence (Amersham Pharmacia Biotech, Baie d'Urfe, Quebec, Canada). Immunostaining for β-actin was used to confirm equal protein loading. Immune complex kinase assays for c-jun kinase activity were performed as previously described (Davison et al. Blood. 2004; 103: 3496-3502).
On the technique in general: A western blot detects proteins with antibodies after separation by electrophoresis.

In data set [4] the test system is Normal human PBMC. Put plainly: Colony forming unit assay of peripheral blood mononuclear cells. As to the method: Peripheral blood mononuclear cells (PBMC) were obtained from two healthy normal donors after obtaining informed consent and were collected into tubes containing 7.2 mg K2EDTA. The blood was diluted 1:3 in PBS, layered onto an equal volume of Ficoll-Plaque™ PLUS (Amershan Biosciences, Piscataway, N.J.) and centrifuged at 1500 rpm for 30 minutes. The mononuclear cell layer was collected and washed twice in PBS. Methylcellulose media was prepared by combining IMDM, 30% FBS, 1% bovine serum albumin, 10^−4M 2-mercaptoethanol, 2 mM L-glutamine, 0.1U penicillin, 0.1 μg/ml streptomycin, granulocyte-macrophage colony-stimulating factor (GM-CSF; 10 ng/ml), interleukin-3 (IL-3; 10 ng/ml0) and erythropoietin (EPO; 3U/ml). PBMC were seeded in this media at a concentration of 300,000 cells/ml and treated with or without As2O3, trolox or the combination. Cultures were performed in triplicate in 35 mm^2 dishes and incubated at 37° C. in 4% CO2. Colonies derived from […] (BFU-E) and CFU-GM were counted on day 7 and 13.

As to `Cc1c(C)c2c(c(C)c1O)CCC(C)(C(=O)O)O2` (stereo not shown) [trolox, Trolox], the “effect on cell number” value in data set [1] was “no effect on cell number”. The “apoptosis (PI staining)” value in data set [2] is on record as “no effect on the apoptotic rate”. The HO-1 protein induction result in data set [3] is on record as “not detected”. Further, the “colony formation (CFU-GM, BFU-E, CFU-E)” value in data set [4] is “did not inhibit colony formation”.
